Laboratory results from patent US20230058623A1, “NOVEL HETEROARYL-TRIAZOLE COMPOUNDS AS PESTICIDES” (Bayer Aktiengesellschaft, priority 2019, published 2023).

What was measured:
Type in all cases: in vivo
[1] = tested on: adult mosquitoes Aedes aegypti strain MONHEIM; test: Aedes aegypti test (AEDSAE surface treatment & contact assay); details: 24 hours after contact, read-out: efficacy (mortality); for mortality at 20 mg/m2: surface concentration 20 mg/m^2, exposure 30 minutes
Procedure, shortened: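 Compound in acetone (2 mg/ml) with 2000 ppm RME dried onto glazed tile; adults exposed to the treated surface for 30 min. Percent mortality scored 24 h after contact.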

[2] = tested on: fall armyworm larvae (Spodoptera frugiperda); test: Spodoptera frugiperda spray test; details: 168 h, application rate 100 g/ha, after 7 days, maize leaf sections
Procedure, shortened: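 Caterpillars are placed on sprayed, dried maize leaf sections. Sprays contain compound diluted in water with emulsifier at 1000 ppm; mortality in % is determined 7 days later.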

[3] = tested on: cattle ticks (Rhipicephalus microplus) strain Parkhurst, SP-resistant; test: Rhipicephalus (Boophilus) microplus dip test; details: 168 h, application rate 100 ppm, egg deposition after 7 days, read-out: activity (efficacy: infertile eggs)
Procedure: Rhipicephalus (Boophilus) microplus—Dip Test
Test animal: cattle ticks (Rhipicephalus microplus) strain Parkhurst, SP-resistant
Solvent: dimethyl sulfoxide
To produce a suitable preparation of active compound, 10 mg of active compound are dissolved in 0.5 mL solvent, and the concentrate is diluted with water to the desired concentration.
This compound solution is pipetted into tubes. 8-10 engorged, adult, female cattle ticks (Rhipicephalus microplus) are placed in perforated tubes. These tubes are immersed in the aqueous compound solution until the ticks are completely moistened. After the liquid has drained off, the ticks are transferred to a filter paper in a plastic tray and stored in a climate chamber.
After 7 days egg deposition of fertile eggs is monitored. Eggs where fertility is not visible are stored in a climate chamber till hatching after about 42 days. An efficacy of 100% means all eggs are infertile; 0% means all eggs are fertile.

[4] = tested on: larvae of the southern green stink bug (Nezara viridula); test: Nezara viridula spray test; details: 96 h, after 4 days, barley plants; for mortality at 500 g/ha: application rate 500 g/ha, read-out: activity (mortality)
Procedure, shortened: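 Barley plants sprayed with the active compound in emulsifier-containing water, then infested with stink bug larvae. Mortality scored in % after 4 days, with 100% meaning all insects killed.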

[5] = tested on: green peach aphid (Myzus persicae); test: Myzus persicae oral test; details: 120 h, read-out: activity (mortality)
Procedure, shortened: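 Compound was dissolved at 1 part by weight in 100 parts acetone, then diluted with water to test concentration and combined with IPL41 insect medium (33%+15% sugar). A mixed aphid population fed on this through a parafilm seal, and mortality (%) was scored after 5 days.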

[6] = tested on: larvae of the banded cucumber beetle (Diabrotica balteata); test: Diabrotica balteata spray test; details: 168 h, after 7 days, wheat seeds, read-out: activity (efficacy: seedlings grown); for pest or weed control at 32 µg/disc, 100 g/ha: application rate 100 g/ha (=32 μg/well)
Procedure, shortened: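 Wheat seeds germinated 1 day on agar were sprayed with compound diluted in water with 1000 ppm emulsifier, then infested with 10-20 Diabrotica balteata larvae. Efficacy in % scored after 7 days: 100% = seedlings grown as untreated, uninfected control; 0% = no seedlings grown.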

[7] = tested on: adult unfed cat fleas (Ctenocephalides felis); test: Ctenocephalides felis oral test; details: 48 h, read-out: activity (mortality)
Procedure, shortened: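 About 20 adult unfed cat fleas fed through parafilm on citrated cattle blood containing compound (from a DMSO concentrate). Blood held at 37° C, fleas at room temperature. Mortality in % scored after 2 days.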

[8] = tested on: adult engorged female ticks (Rhipicephalus microplus); test: Rhipicephalus (Boophilus) microplus injection test; details: 168 h, application rate 4 μg/tick, egg deposition after 7 days, read-out: activity (efficacy: infertile eggs)
Procedure, shortened: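 Efficacy is scored from egg fertility, with 100% meaning every egg infertile and 0% every egg fertile. Five engorged females per test received 1 μL DMSO solution abdominally. Eggs of unclear fertility were kept until hatching, about 42 days.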

[9] = tested on: brown planthopper (Nilaparvata lugens); test: Nilaparvata lugens spray test; details: 96 h, application rate 500 g/ha, after 4 days, rice plants
Procedure: Nilaparvata lugens—Spray Test
To produce a suitable preparation of active compound, 1 part by weight of active compound is mixed with the stated amount of solvents and is diluted with water, containing an emulsifier concentration of 1000 ppm, to the desired concentration. Further test concentrations are prepared by dilution with emulsifier containing water.
Rice plants (Oryza sativa) are sprayed with a preparation of the active ingredient of the desired concentration and the plants are infested with the brown planthopper (Nilaparvata lugens).
After 4 days mortality in % is determined. 100% means all planthoppers have been killed and 0% means none of the planthoppers have been killed.

[10] = tested on: adult cat fleas (Ctenocephalides felis); test: Ctenocephalides felis in-vitro contact test, adult cat flea; details: application rate 5 μg/cm^2 (=500 g/ha), after 48 hours, read-out: activity (efficacy: fleas dead or moribund)
Procedure, shortened: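 Acetone solutions of compound were coated onto inner walls of glass tubes (900 ppm giving 5 μg/cm^2) and dried; 5-10 adult C. felis were then held 48 h at room temperature. Efficacy = % fleas dead or moribund, judged by inability to escape a 45-50° C heating plate within 5 min.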

[11] = tested on: green peach aphid (Myzus persicae); test: Myzus persicae spray test; details: foliar, 120 h, after 5 days, Chinese cabbage leaf disks; for mortality at 100 g/ha: application rate 100 g/ha, read-out: activity (mortality)
Procedure, shortened: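 Chinese cabbage leaf disks infested with all aphid instars were sprayed with compound diluted in water containing emulsifier (1000 ppm). Mortality (%) was scored after 5 days, 100% meaning all aphids killed.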

[12] = tested on: Rhipicephalus (Boophilus) microplus larvae (strain Parkhurst, resistant against synthetic pyrethroids); test: Rhipicephalus (Boophilus) microplus in-vitro contact test, larval cattle tick; details: after 48 hours, read-out: activity (efficacy: larvae dead or moribund); for pest or weed control at 1 µg/cm2, 100 g/ha: application rate 1 μg/cm^2 (=100 g/ha); for pest or weed control at 5 µg/cm2, 500 g/ha: application rate 5 μg/cm^2 (=500 g/ha)
Procedure, shortened: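 Acetone solutions were coated onto glass tube walls, giving 5 μg/cm^2 at 900 ppm. Once dry, 20–50 pyrethroid-resistant Parkhurst larvae were added per tube and held 48 h at 27 °C and 85% RH. Efficacy was scored by negative geotaxis as the percentage of dead or moribund larvae.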

[13] = tested on: southern root-knot nematode (Meloidogyne incognita); test: Meloidogyne incognita test; details: application rate 20 ppm; after 14 days
Procedure: Meloidogyne incognita—Test
Solvent: 125.0 parts by weight of acetone
To produce a suitable preparation of active compound, 1 part by weight of active compound is mixed with the stated amount of solvent, and the concentrate is diluted with water to the desired concentration.
Vessels are filled with sand, a solution of the active ingredient, a suspension containing eggs and larvae of the southern root-knot nematode (Meloidogyne incognita) and salad seeds. The salad seeds germinate and the seedlings grow. Galls develop in the roots.
After 14 days the nematicidal activity is determined based on the percentage of gall formation. 100% means no galls were found and 0% means the number of galls found on the roots of the treated plants was equal to that in untreated control plants.

[14] = tested on: adult brown dog ticks (Rhipicephalus sanguineus); test: Rhipicephalus sanguineus in-vitro contact test, adult brown dog ticks; details: application rate 5 μg/cm^2 (=500 g/ha), after 48 hours, read-out: activity (efficacy: ticks dead or moribund)
Procedure, shortened: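 Efficacy (%) reflects the fraction of adult ticks dead or moribund after 48 h of contact with a dried acetone film on tube walls at 5 μg/cm^2 (from 900 ppm). Moribund status was assessed by inability to climb away from heat at 45-50° C.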

[15] = tested on: adult flies Musca domestica strain WHO-N; test: Musca domestica test (MUSCDO surface treatment & contact assay); details: surface concentration 20 mg/m^2, exposure 30 minutes, 24 hours after contact, read-out: efficacy (mortality)
Procedure, shortened: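 Compound dissolved at 2 mg/ml in acetone with 2000 ppm RME, applied to glazed tile and dried; adult flies exposed on the surface for 30 min. Percent mortality scored 24 h after contact.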

[16] = tested on: adult mosquitoes Anopheles funestus strain FUMOZ-R; test: Anopheles funestus test (ANPHFU surface treatment & contact assay); details: surface concentration 20 mg/m^2, exposure 30 minutes, 24 hours after contact, read-out: efficacy (mortality)
Procedure: Anopheles funestus Test (ANPHFU Surface Treatment & Contact Assay)
Solvent: Aceton+2000 ppm rapeseed oil methyl ester (RME)
In order to produce a sufficient, active ingredient containing solution it is necessary to solve the test compound in the solvent-mix (acetone at 2 mg/ml/RME 2000 ppm). This solution is pipetted onto a glazed tile and after evaporation of the acetone, adult mosquitoes of the species Anopheles funestus strain FUMOZ-R (Hunt et al., Med. Vet. Entomol. 2005 September; 19(3): 271-275) are placed onto the dried surface. The exposure time is 30 minutes.
Mortality in percent (%) is determined 24 hours after contact of the insects to the treated surface. 100% mortality means that all tested insects are dead, whereas 0% means that no insect died.

Compound	mortality at 20 mg/m2 [1] [%]	mortality at 100 g/ha [2] [%]	pest or weed control at 100 ppm [3] [%]	mortality at 500 g/ha [4] [%]	mortality at 4 ppm [5] [%]	mortality at 100 ppm [7] [%]	pest or weed control at 0.004 mg [8] [%]	mortality at 500 g/ha [9] [%]	pest or weed control at 5 µg/cm2 [10] [%]	mortality at 100 g/ha [11] [%]	pest or weed control at 1 µg/cm2, 100 g/ha [12] [%]	pest or weed control at 5 µg/cm2, 500 g/ha [12] [%]	activity (nematicidal activity based on gall formation) [13] [%]	pest or weed control at 5 µg/cm2, 500 g/ha [14] [%]	mortality at 20 mg/m2 [15] [%]	other results
C[C@H](NC(=O)c1cc(Cl)cc(C(F)(F)F)c1)c1ncnn1-c1ccc(C(=O)N2CCOCC2)cn1 [Example I-1]	80 to 100	100	80	100	100	100	100	100	100	100						mortality at 4 mg/m2 ([1]; surface concentration 4 mg/m^2, exposure 30 minutes): 80 to 100%; pest or weed control at 160 µg/disc, 500 g/ha ([6]; application rate 500 g/ha (=160 μg/well)): 100%; mortality at 500 g/ha ([11]; application rate 500 g/ha): 100%
C[C@H](NC(=O)c1cc(C(F)(F)F)cc(C(F)(F)F)c1)c1ncnn1-c1ccc(C(=O)N2CCC(O)C2)cn1 (stereo partly drawn) [Example I-13]			80		100	100	100			100	100	100				
Cc1nc([C@H](C)NC(=O)c2cc(Cl)cc(C(F)(F)F)c2)n(-c2cc(C(=O)N3CCCC3)ccn2)n1 [Example I-27]						100	80				100	100	90	80		
Cc1nc([C@H](C)NC(=O)c2cc(Cl)cc(C(F)(F)F)c2)n(-c2cc(C(=O)N3CCC3)ccn2)n1 [Example I-28]						100	80				90	90	90			
COC1CCN(C(=O)c2ccc(-n3ncnc3[C@H](C)NC(=O)c3cc(Cl)cc(C(F)(F)F)c3)nc2)CC1 [Example I-30]					100		100		80	90	100	100	90			
Cc1nc([C@H](C)NC(=O)c2cc(C(F)(F)F)cc(C(F)(F)F)c2)n(-c2ccc(C(=O)N3C[C@@H](C)O[C@H](C)C3)cn2)n1 [Example I-47]		100	100		100	90	100		100	100	100	100		100		
C[C@H](NC(=O)c1cc(C(F)(F)F)cc(C(F)(F)F)c1)c1ncnn1-c1ccc(C(=O)N2CCN(C)C(=O)C2)cn1 [Example I-79]	80 to 100	100		100	100			100							80 to 100	mortality at 20 mg/m2 [16]: 80 to 100%
CC1CN(C(=O)c2ccc(-n3ncnc3[C@H](C)NC(=O)c3cc(C(F)(F)F)cc(S(C)(=O)=O)c3)nc2)CCO1 (stereo partly drawn) [Example I-81]				100	100			100					100			mortality at 100 g/ha ([4]; application rate 100 g/ha): 100%
C[C@H](NC(=O)c1cc(C(F)(F)F)cc(C(F)(F)F)c1)c1nc(C2CC2)nn1-c1ccc(C(=O)N2CCOCC2)cn1 [Example I-88]	80 to 100	100		100					100	90	100	100	100	100	80 to 100	pest or weed control at 32 µg/disc, 100 g/ha [6]: 100%
Cc1nc([C@H](C)NC(=O)c2cc(C(F)(F)F)cc(C(F)(F)F)c2)n(-c2ncc(C(=O)N3C[C@@H](C)O[C@@H](C)C3)s2)n1 [Example I-107]		100	100		100	100	100				100	100		100	80 to 100	pest or weed control at 32 µg/disc, 100 g/ha [6]: 100%
